Biological target: SERA5 (rSERA5-C) (Plasmodium falciparum, UniProt Q9TY95, S596C)
Assay: fluorogenic peptide (Abz-LAQAVRSSSR-Dpa) cleavage assay with purified rSERA5-C, progress curves
Type: biochemical

Q: Which IC50 does the source give for CC(C)C[C@H](NC(=O)[C@H]1O[C@@H]1C(=O)O)C(=O)NCCCCN=C(N)N [E64, trans-epoxysuccinyl-L-leucylamido(4-guanidino)butane] here?
A: 2.9 ± 0.3 µM

Source: publication PMC4671257, “Plasmodium falciparum SERA5 plays a non-enzymatic role in the malarial asexual blood-stage lifecycle” (Molecular Microbiology, 2015)
